Test results as given in patent US9163030B2 (priority 2012, dated 2015).
Read-outs that look alike come from different tables or passages of the source.

Tests used:
KOR [1] = conditions: brain tissue membranes, included for comparison; read-out: Ki ± SEM KOR; cited from earlier work
DOR [2] = conditions: brain tissue membranes, included for comparison; read-out: Ki ± SEM DOR; cited from earlier work
MOR [3] = conditions: brain tissue membranes, included for comparison; read-out: Ki ± SEM MOR; cited from earlier work
DOR [4] = target: T1, DOR (Mus musculus, UniProt P32300); assay: [35S]GTP-γ-S binding assay, NG108-15 cells; type: biochemical; conditions: for functional activity profile at DOR: in words
T1 construct: endogenous in cells; host or cells: NG108-15 neuroblastoma x glioma cells
T1 sequence (P32300 whole entry): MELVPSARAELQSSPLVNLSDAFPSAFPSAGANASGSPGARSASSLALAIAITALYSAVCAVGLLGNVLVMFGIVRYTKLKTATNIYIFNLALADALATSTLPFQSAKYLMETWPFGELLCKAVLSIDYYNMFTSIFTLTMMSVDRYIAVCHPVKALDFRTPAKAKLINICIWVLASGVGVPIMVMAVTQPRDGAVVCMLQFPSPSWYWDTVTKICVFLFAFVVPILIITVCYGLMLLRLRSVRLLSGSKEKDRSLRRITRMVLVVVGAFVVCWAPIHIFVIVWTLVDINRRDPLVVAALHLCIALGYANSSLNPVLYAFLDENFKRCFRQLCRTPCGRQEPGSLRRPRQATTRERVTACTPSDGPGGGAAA

mice [5] = assay: 55° C. warm-water tail-withdrawal test; type: in vivo, mouse; conditions: for Antinociceptive A50 Values / antinociceptive effect: icv; for Antinociceptive A50 Values: calculated at time of peak effect; for antinociceptive effect: in words; for effect of naloxone pretreatment on antinociceptive effect: naloxone 10 mg/kg ip, -10 min, icv test compound
KOR [6] = target: T2, KOR (Homo sapiens, UniProt P41145); assay: [35S]GTP-γ-S binding assay, hKOR-CHO cells; type: biochemical
T2 construct: expressed in transfected cells; host or cells: CHO (hKOR-CHO)
T2 sequence (P41145 whole entry): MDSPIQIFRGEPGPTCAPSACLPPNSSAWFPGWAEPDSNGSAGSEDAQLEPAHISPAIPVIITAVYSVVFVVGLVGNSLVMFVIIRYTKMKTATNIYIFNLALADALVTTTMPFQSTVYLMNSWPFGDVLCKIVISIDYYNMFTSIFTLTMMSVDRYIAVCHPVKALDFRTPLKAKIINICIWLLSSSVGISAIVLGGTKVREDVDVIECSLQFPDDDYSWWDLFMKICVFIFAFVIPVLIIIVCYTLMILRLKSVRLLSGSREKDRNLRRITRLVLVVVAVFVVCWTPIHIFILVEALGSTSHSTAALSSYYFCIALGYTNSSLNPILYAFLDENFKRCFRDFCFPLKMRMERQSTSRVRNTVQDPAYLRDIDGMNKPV

[7] = target: T3, CHO cells co-expressing MOR and DOR (dimer cells) (UniProt P32300+P35372); type: cell-based, human μ / mouse δ
T3 construct: cMyc (N); expressed in transfected cells; host or cells: CHO (cMyc-mδ-HμCHO cells)
T3 sequence (P35372 whole entry): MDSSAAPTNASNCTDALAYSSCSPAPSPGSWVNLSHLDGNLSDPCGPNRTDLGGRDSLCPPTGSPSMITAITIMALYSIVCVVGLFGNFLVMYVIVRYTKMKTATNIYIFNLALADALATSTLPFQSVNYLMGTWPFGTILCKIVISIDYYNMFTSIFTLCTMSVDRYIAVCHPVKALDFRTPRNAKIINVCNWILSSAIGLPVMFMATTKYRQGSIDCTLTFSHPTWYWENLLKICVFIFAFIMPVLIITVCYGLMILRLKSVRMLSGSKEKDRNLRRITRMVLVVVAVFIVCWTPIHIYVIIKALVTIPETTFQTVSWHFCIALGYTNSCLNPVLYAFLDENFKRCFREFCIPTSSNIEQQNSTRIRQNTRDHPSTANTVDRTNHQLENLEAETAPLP
T3 sequence (P32300 whole entry): as the sequence (P32300 whole entry) above

[8] = target: T3, CHO cells co-expressing MOR and DOR (dimer cells); assay: cell-based; type: cell-based, human μ / mouse δ; set-up: Emax: dose or concentration left out as unconfirmed; conditions: for Emax: CHO, read-out: decrease of the Emax value for DAMGO-mediated inhibition of forskolin-stimulated cAMP
MOR [9] = target: T4, MOR (Homo sapiens, UniProt P35372); assay: [35S]GTP-γ-S binding assay, hMOR-CHO cells; type: biochemical; conditions: for Emax: normalized to stimulation by DAMGO, read-out: agonist activity MOR Emax
T4 construct: expressed in transfected cells; host or cells: CHO (hMOR-CHO)
T4 sequence (P35372 whole entry): as the sequence (P35372 whole entry) above

mice [10] = assay: Tolerance regimen, repeated icv injection, warm-water tail-withdrawal; conditions: repeated injection paradigm
DOR [11] = target: T5, DOR (Homo sapiens, UniProt P41143); assay: Opioid binding assay, displacement of [3H]DADLE, hDOR-CHO cell membranes
T5 construct: expressed in transfected cells; host or cells: CHO (hDOR-CHO)
T5 sequence (P41143 whole entry): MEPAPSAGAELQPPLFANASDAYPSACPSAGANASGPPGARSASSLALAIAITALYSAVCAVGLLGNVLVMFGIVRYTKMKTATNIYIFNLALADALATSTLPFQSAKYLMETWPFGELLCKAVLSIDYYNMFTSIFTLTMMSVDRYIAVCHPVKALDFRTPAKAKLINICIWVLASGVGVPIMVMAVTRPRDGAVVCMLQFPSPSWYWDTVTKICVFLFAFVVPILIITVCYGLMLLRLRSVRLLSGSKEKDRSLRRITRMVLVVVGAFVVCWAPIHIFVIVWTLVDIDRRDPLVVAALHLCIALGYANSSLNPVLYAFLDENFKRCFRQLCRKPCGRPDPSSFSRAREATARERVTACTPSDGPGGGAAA

KOR [12] = target: T2, KOR; assay: biochemical; type: binding
MOR [13] = target: T4, MOR; assay: Opioid binding assay, displacement of [3H]DAMGO, hMOR-CHO cell membranes
[14] = stimulation of [35S]GTP-γ-S binding, no stim = no stimulation

SMILES: CN1CCC23c4c5ccc(O)c4OC2c2ncc(-c4ccc(Cl)cc4)cc2CC3(O)C1C5 (stereo not shown) [Compound 9]
- Ki (KOR [1]): 468 ± 17 nM
- Ki (DOR [2]): 3.9 ± 0.2 nM
- Ki (MOR [3]): 230 ± 10 nM

SMILES: Oc1ccc2c3c1OC1c4ncc(-c5ccc(Cl)cc5)cc4CC4(OCCCc5ccccc5)C(C2)N(CC2CC2)CCC314 (stereo not drawn) [Compound 17d, 5′-(4-Chlorophenyl)-17-(cyclopropylmethyl)-6,7-didehydro-4,5α-epoxy-3-hydroxy-14-(3-phenylpropoxy)pyrido[2′,3′:6,7]morphinan]
- functional activity profile at DOR (DOR [4]): antagonists at DOR
- antagonist activity DOR Ke (DOR [4]; shift in EC50 of standard agonist): 0.091 nM
- agonist activity DOR EC50 (DOR [4]; [14]): no stim
- Antinociceptive A50 Values (mice [5]): 0.35 nmol
- antinociceptive effect (mice [5]): full antinociceptive effects
- effect of naloxone pretreatment on antinociceptive effect (mice [5]): blocked by naloxone pretreatment
- functional activity profile at KOR (KOR [6]; in words): devoid of agonist activity at KOR
- cAMP superactivation (forskolin-stimulated cAMP accumulation after chronic treatment) ([7]; 20 h treatment, washed, forskolin/IBMX 100 μM/500 μM): did not
- naloxone-induced cAMP overshoot ([7]; 20 h treatment, washed, forskolin/IBMX plus 10 μM naloxone): did not
- increase in the EC50 value for DAMGO-mediated inhibition of forskolin-stimulated cAMP accumulation (tolerance) [8]: did not produce either tolerance
- Emax [8]: 40%
- functional activity profile at MOR (MOR [9]; in words): agonist profile at MOR
- Emax (MOR [9]): 72%

SMILES: CN1CCC23c4c5ccc(O)c4OC2c2ncc(-c4ccc(Cl)cc4)cc2CC3(OCCCc2ccccc2)C1C5 (stereo not drawn) [Compound 17h, 5′-(4-Chlorophenyl)-6,7-didehydro-4,5α-epoxy-3-hydroxy-17-methyl-14-(3-phenylpropoxy)pyrido[2′,3′:6,7]morphinan]
- toxicity on repeated administration (mice [10]): undue toxicity
- Ki (DOR [11]): 1.04 ± 0.08 nM
- functional activity profile at DOR (DOR [4]): weak to potent partial agonist activity at DOR
- Emax (DOR [4]; read-out: agonist activity DOR Emax): 85%
- Antinociceptive A50 Values (mice [5]): 0.23 nmol
- antinociceptive effect (mice [5]): full antinociceptive effects
- effect of naloxone pretreatment on antinociceptive effect (mice [5]): blocked by naloxone pretreatment
- selectivity ratio KOR/DOR (KOR [12]): 1.5
- Ki (KOR [12]; read-out: Ki ± SEM KOR): 1.53 ± 0.1 nM
- agonist activity KOR EC50 (KOR [6]; [14]): no stim
- cAMP superactivation (forskolin-stimulated cAMP accumulation after chronic treatment) [7]: effects similar to that of morphine
- naloxone-induced cAMP overshoot [7]: effects similar to that of morphine
- increase in the EC50 value for DAMGO-mediated inhibition of forskolin-stimulated cAMP accumulation (tolerance) [8]: ~7 fold
- Emax [8]: 20%
- EC50 (MOR [9]): 2.15 nM
- Emax (MOR [9]): 125 ± 2%
- Ki (MOR [13]): 0.54 ± 0.04 nM
- selectivity ratio MOR/DOR (MOR [13]; ratio of Ki values, CHO membranes): 0.52
